Results: PubChem BioAssay AID2060910 (Molecular Pharmacology Branch, DTP, NCI, 2025)

System: 242566-281-R-J2-PDC complex spheroid viability
Experiment: Anticancer human tumor 242566-281-R-J2-PDC patient-derived pancreatic carcinoma cell line growth inhibition [RAS]
Settings: for IC50: curve of first compound; for viability, T/C: stronger effect = lower value; active means viability on the fitted dose curve at most 10% of control; inactive means the rest
From the text: RAS pathway inhibitors in Combinations in Complex Spheroids
A high-throughput screen of multi-cell type tumor spheroids was designed to identify active combinations of RAS pathway inhibitors and targeted small molecules. Complex spheroids include a stromal component modeled by human endothelial cells (HUVEC) and fibroblasts modeled by human mesenchymal stem cells (MSCs). The concentration ranges selected for each drug and investigational agent were based upon clinically achievable concentrations if the clinical Cmax of the agent was known.
Compounds. The drugs and investigational agents: abemaciclib (NSC768073), cobimetinib (NSC768068), divarasib (GDC6063, NSC841802), docetaxel (NSC628503), GDC-1971 (RLY-1971, NSC841576), gemcitabine (NSC613327), inavolisib (NSC800729), ipatasertib (NSC767898), KB-0742 (NSC834161), MRTX-1133 (NSC836407), osimertinib (NSC779217), RMC-4630 (NSC839698), RMC-6236 (NSC851965), RMC-6291 (NSC852671), Ro-3306 (NSC812927), sapanisertib (NSC764658), SN-38 (NSC673596), staurosporine (NSC755774), SY5609 (NSC837396), and tovorafenib (DAY101, NSC766906), were obtained from the National Cancer Institute (NCI) Developmental Therapeutics Program Chemical Repository. The FDA-approved anticancer drug set is available from the NCI Developmental Therapeutics Program. […] The stock solutions were prepared in dimethyl sulfoxide (DMSO, Sigma-Aldrich, St. Louis, MO, cat. D2650) at 800-fold the tested concentration and stored at -70 degrees C prior to their use. All drugs and investigational agents were tested over a range starting from a high concentration at or near the clinical Cmax and decreasing in half-log increments. If the clinical Cmax for an agent had not been determined, the highest concentration tested was 10 microM.
Cell Culture. All cells were maintained in an incubator at 37 degrees C and 5% CO2 with 95% humidity. The PDC lines were cultured according to standard operating procedures established by the NCI PDMR. All PDCs were thawed and cultured in Matrigel-coated flasks prepared with a working solution of 1X Ham's F-12 nutrient mix, without supplementation (Invitrogen, Waltham, MA, cat. 11765054), 100 U/mL penicillin-streptomycin (Invitrogen, cat. 15140122), and 2.5% Matrigel (Corning Inc., Corning, NY, cat. 354248) for the first three passages. The 362531-283-R-J2-PDC and 782815-120-R-J1-PDC lines were cultured in 6C/Colon 1B media, which includes advanced DMEM/F-12 (Thermo Fisher Scientific, cat. 12634028), 10 mM HEPES (Thermo Fisher Scientific, cat. 15630080), 1X GlutaMAX supplement (Thermo Fisher Scientific, cat. 35050061), 0.1 mg/mL primocin (InvivoGen, San Diego, CA, cat. ant-pm-2), 10% defined fetal bovine serum, heat inactivated (HyClone Laboratories Inc., Logan, UT, cat. SH30070.03HI), 50% L-WRN conditioned media (ATCC, cat. CRL-3276), 1.25 mM N-Acetyl-L-cysteine (Sigma-Aldrich, cat. A9165), 10 mM nicotinamide (Sigma-Aldrich, cat. N0636), 1X B-27 supplement (Thermo Fisher Scientific, cat. 17504044), 1X N-2 supplement (Thermo Fisher Scientific, cat. 17502048), 50 ng/mL human EGF (Thermo Fisher Scientific, cat. PHG0311), and 10 microM Y-27632 dihydrochloride (Tocris Bioscience, cat. 1254). The K12877-001-R-J1-PDC line was cultured in 6I media, which includes all 6C/Colon 1B media plus 10 ng/mL human FGF-10 (PeproTech, cat. 100-26), 1 ng/mL human FGF-2 (PeproTech, cat. 100-18B), 1 µM prostaglandin E2 (Tocris Bioscience, cat. 2296), […] hydrocortisone (Sigma-Aldrich, cat. H4001), and […] bovine insulin (Sigma-Aldrich, cat. I6634). The K86415-001-R-J1-PDC line was cultured in 6D media, which includes all 6C/Colon 1B media components minus the L-WRN conditioned media. The 485176-168-R4-J1-PDC was cultured in PANC media, which includes all 6C/Colon 1B media plus 100 ng/mL human FGF-10 (PeproTech, cat. 100-26), 500 nM SB-431542 (Selleckchem, cat. S1067), and 10 nM gastrin (Tocris Bioscience, cat. 3006). […]

[1] = second compound 0.0316 µM, first compound 0.0316 µM
[2] = second compound 0.0316 µM, first compound 0.1 µM
[3] = second compound 0.0316 µM, first compound 0.316 µM
[4] = second compound 0.0316 µM, first compound 1 µM
[5] = second compound 0.0316 µM, first compound 3.16 µM
[6] = second compound 0.0316 µM, first compound 10 µM
[7] = second compound 0.1 µM, first compound 0.0316 µM
[8] = second compound 0.1 µM, first compound 0.1 µM
[9] = second compound 0.1 µM, first compound 0.316 µM
[10] = second compound 0.1 µM, first compound 1 µM
[11] = second compound 0.1 µM, first compound 3.16 µM
[12] = second compound 0.1 µM, first compound 10 µM
[13] = second compound 0.316 µM, first compound 0.0316 µM
[14] = second compound 0.316 µM, first compound 0.1 µM
[15] = second compound 0.316 µM, first compound 0.316 µM
[16] = second compound 0.316 µM, first compound 1 µM
[17] = second compound 0.316 µM, first compound 3.16 µM
[18] = second compound 0.316 µM, first compound 10 µM
[19] = second compound 1 µM, first compound 0.0316 µM
[20] = second compound 1 µM, first compound 0.1 µM
[21] = second compound 1 µM, first compound 0.316 µM
[22] = second compound 1 µM, first compound 1 µM
[23] = second compound 1 µM, first compound 3.16 µM
[24] = second compound 1 µM, first compound 10 µM
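Further: spheroids exposed to compound for 7 days before readout.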
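Wherever viability, T/C is given: 100% = DMSO vehicle control wells.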

CC(Nc1ccc2c(c1)OCCn1cc(N3C(=O)OCC3C(F)F)nc1-2)C(N)=O (centres undefined) + C#Cc1c(F)ccc2cc(O)cc(-c3ncc4c(N5CC6CCC(C5)N6)nc(OCC56CCCN5CC(F)C6)nc4c3F)c12
437 nM: IC50 (second compound 0.0316 µM)
60.3 nM: IC50 (second compound 1 µM)
< 31.6 nM: IC50 (second compound 3.16 µM) | IC50 (second compound 10 µM)
106 nM: IC50 (second compound 0.316 µM)
inactive: viability, T/C [1] 101% | viability, T/C [2] 82.8% | viability, T/C [3] 56.6% | viability, T/C [4] 32.5% | viability, T/C [5] 22.3% | viability, T/C [6] 14.2% | viability, T/C [7] 75% | viability, T/C [8] 63.7% | viability, T/C [9] 37.3% | viability, T/C [10] 22.4% | viability, T/C [11] 13.2% | viability, T/C [13] 68% | viability, T/C [14] 51.2% | viability, T/C [15] 24.8% | viability, T/C [19] 58.1% | viability, T/C [20] 43.7% | viability, T/C [21] 23% | viability, T/C [22] 9.54% | viability, T/C (second compound 3.16 µM, first compound 0.0316 µM) 46.5% | viability, T/C (second compound 3.16 µM, first compound 0.1 µM) 39.2% | viability, T/C (second compound 3.16 µM, first compound 0.316 µM) 14% | viability, T/C (second compound 10 µM, first compound 0.0316 µM) 44% | viability, T/C (second compound 10 µM, first compound 0.1 µM) 32.7% | viability, T/C (second compound 10 µM, first compound 0.316 µM) 19.8%
184 nM: IC50 (second compound 0.1 µM)
active: viability, T/C [12] 8.11% | viability, T/C [16] 8.79% | viability, T/C [17] 7.1% | viability, T/C [18] 4.15% | viability, T/C [23] 6.78% | viability, T/C [24] 3.29% | viability, T/C (second compound 3.16 µM, first compound 1 µM) 9.39% | viability, T/C (second compound 3.16 µM, first compound 3.16 µM) 5.47% | viability, T/C (second compound 3.16 µM, first compound 10 µM) 3.71% | viability, T/C (second compound 10 µM, first compound 1 µM) 6.3% | viability, T/C (second compound 10 µM, first compound 3.16 µM) 5.27% | viability, T/C (second compound 10 µM, first compound 10 µM) 2.24%

NC1c2ccccc2OC12CCN(c1cnc3c(N4CCCc5ncccc54)n[nH]c3n1)CC2 (centres undefined) + C=CC(=O)N1CCN(c2nc(OCC3CCCN3C)nc3c(F)c(-c4nc(N)cc(C)c4C(F)(F)F)c(Cl)cc23)C(C)C1
> 10000 nM: IC50 (second compound 0.00316 µM) | IC50 (second compound 0.01 µM) | IC50 (second compound 0.0316 µM) | IC50 (second compound 0.1 µM) | IC50 (second compound 0.316 µM) | IC50 (second compound 1 µM)
inactive: viability, T/C (second compound 0.00316 µM, first compound 0.0316 µM) 104% | viability, T/C (second compound 0.00316 µM, first compound 0.1 µM) 128% | viability, T/C (second compound 0.00316 µM, first compound 0.316 µM) 83.3% | viability, T/C (second compound 0.00316 µM, first compound 1 µM) 82.7% | viability, T/C (second compound 0.00316 µM, first compound 3.16 µM) 79.5% | viability, T/C (second compound 0.00316 µM, first compound 10 µM) 61.7% | viability, T/C (second compound 0.01 µM, first compound 0.0316 µM) 99% | viability, T/C (second compound 0.01 µM, first compound 0.1 µM) 122% | viability, T/C (second compound 0.01 µM, first compound 0.316 µM) 107% | viability, T/C (second compound 0.01 µM, first compound 1 µM) 72.2% | viability, T/C (second compound 0.01 µM, first compound 3.16 µM) 98.7% | viability, T/C (second compound 0.01 µM, first compound 10 µM) 62.6% | viability, T/C [1] 120% | viability, T/C [2] 126% | viability, T/C [3] 86.9% | viability, T/C [4] 89.3% | viability, T/C [5] 77.1% | viability, T/C [6] 56.2% | viability, T/C [7] 124% | viability, T/C [8] 129% | viability, T/C [9] 98.8% | viability, T/C [10] 67.5% | viability, T/C [11] 73.3% | viability, T/C [12] 54.7% | viability, T/C [13] 124% | viability, T/C [14] 138% | viability, T/C [15] 87% | viability, T/C [16] 84.4% | viability, T/C [17] 76.2% | viability, T/C [18] 56.8% | viability, T/C [19] 122% | viability, T/C [20] 119% | viability, T/C [21] 76.1% | viability, T/C [22] 87.4% | viability, T/C [23] 91% | viability, T/C [24] 60.4%
